# Columns and labels:
# GalU [1] = biological target: T1, GalU (Shigella sonnei, UniProt Q3Z0V1); experiment: microscale thermophoresis (MST) with purified GalU; supported by malachite green enzyme inhibition ([…] decrease at […]); type: binding
# T1 construct: intact galU gene in pET28a (His-tagged)
# GalU [2] = biological target: T2, GalU (Klebsiella oxytoca, UniProt A0A163UX09); experiment: microscale thermophoresis (MST) with expressed GalU homolog; type: binding
# T2 construct: galUK.o in pET28a
# T2 sequence (A0A163UX09 entry or part of it): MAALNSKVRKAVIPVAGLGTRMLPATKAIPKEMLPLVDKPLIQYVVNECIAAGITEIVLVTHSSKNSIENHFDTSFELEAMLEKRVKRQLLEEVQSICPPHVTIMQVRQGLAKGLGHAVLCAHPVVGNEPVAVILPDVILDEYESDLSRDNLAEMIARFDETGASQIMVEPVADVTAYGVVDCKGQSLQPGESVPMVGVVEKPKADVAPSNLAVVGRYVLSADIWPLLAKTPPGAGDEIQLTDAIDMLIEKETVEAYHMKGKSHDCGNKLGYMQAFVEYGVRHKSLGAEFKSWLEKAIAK
# T1 sequence (Q3Z0V1 entry or part of it): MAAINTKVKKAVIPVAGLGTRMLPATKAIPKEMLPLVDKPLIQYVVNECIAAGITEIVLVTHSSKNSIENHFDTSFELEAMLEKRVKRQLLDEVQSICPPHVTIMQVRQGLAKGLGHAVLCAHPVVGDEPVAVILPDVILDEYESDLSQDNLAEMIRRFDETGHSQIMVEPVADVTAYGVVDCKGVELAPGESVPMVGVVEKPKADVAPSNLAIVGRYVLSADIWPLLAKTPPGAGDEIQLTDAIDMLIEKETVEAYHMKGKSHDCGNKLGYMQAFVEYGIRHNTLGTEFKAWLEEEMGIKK
smiles,measurement,setting,value
O=[N+]([O-])c1ccc2c(c1)S(=O)(=O)C=C2 [Stattic],Kd,GalU [1],20 ± 0.35 µM
same,Kd,GalU [2],50 ± 0.25 µM

# — article PMC10734500, “Anti-virulence and bactericidal activities of Stattic against Shigella sonnei” (Applied and Environmental Microbiology, 2023)
